In EPA's ToxValDB 9.5:

Columns and labels:
Rattus norvegicus [1] = conditions: oral
Rattus norvegicus [2] = conditions: short-term, duration: 28 days, oral, gavage, F, Sprague-Dawley
[3] = developmental, duration: 7 days, Sprague-Dawley, Body Weight: 30% reduction in body weight of dams + Developmental: 13% reduction in body weight of male pups
[4] = developmental, duration: 20 days, F, Sprague-Dawley, Developmental: 5-fold increased neonatal mortality on PNDs 1-3
[5] = developmental, duration: 21 days, F, Sprague-Dawley, Developmental: ~5-fold increased postnatal mortality and severe lung histopathology in pups
[6] = short-term, duration: 28 days, M, Sprague-Dawley, Body Weight: 12% decrease in terminal body weight
[7] = short-term, duration: 28 days, M, Sprague-Dawley, Neurological: Degeneration of gonadotropic cells of the pituitary gland at ?1.0 mg/kg/day / dense chromatin, condensed ribosomes, loss of …
[8] = short-term, duration: 28 days, M, Wistar, Neurological: Tonic convulsions in response to stimuli

**Q.** For `O=S(=O)(O)C(F)(F)C(F)(F)C(F)(F)C(F)(F)C(F)(F)C(F)(F)C(F)(F)C(F)(F)F` [Perfluorooctanesulfonic acid], which LOAEL (Rattus norvegicus [1]; developmental, duration: 1 days, M/F, Wistar, Developmental: Decreased spatial learning ability in prenatally or postnatally exposed offspring at ?0.8 mg/kg/day and in offspring exposure…) is on record?
**A.** 0.8 mg/kg-day

**Q.** And the LOAEL (Rattus norvegicus [1]; developmental, duration: 5 days, M/F, Sprague-Dawley, Body Weight: Reduced body weight in dams / approximately 98% on GD 8 and 33% on GD 20 + Developmental: Decreased birth weight in females …)?
**A.** 18.8 mg/kg-day

**Q.** And the LOAEL (Rattus norvegicus [1]; [3])?
**A.** 20 mg/kg-day

**Q.** And the NOAEL (Rattus norvegicus [1]; [3])?
**A.** 5 mg/kg-day

**Q.** What about the LOAEL (Rattus norvegicus [1]; [4]) of the same compound?
**A.** 2 mg/kg-day

**Q.** And the NOAEL (Rattus norvegicus [1]; [4])?
**A.** 0.6 mg/kg-day

**Q.** What about the LOAEL (Rattus norvegicus [1]; [5]) of the same compound?
**A.** 2 mg/kg-day

**Q.** And the NOAEL (Rattus norvegicus [1]; [5])?
**A.** 0.1 mg/kg-day

**Q.** And the NOAEL (Rattus norvegicus [1]; developmental, duration: 84 days, gavage, M/F, Sprague-Dawley, developmental)?
**A.** 7.43 mg/L

**Q.** And the NOAEL (Rattus norvegicus [1]; short-term, duration: 21 days, M, Sprague-Dawley)?
**A.** 10 mg/kg-day

**Q.** And the LOAEL (Rattus norvegicus [1]; short-term, duration: 21 days, M, Sprague-Dawley, Reproductive: Delayed maturation of testicular Leydig cells, decreased seminal vesicle weight, decreased epididymal sperm count, decreased …)?
**A.** 5 mg/kg-day

**Q.** And the LOAEL (Rattus norvegicus [1]; short-term, duration: 25 days, M, Sprague-Dawley, Endocrine: Decreases in serum corticosterone (~58%) and ACTH levels (~11%), decrease in corticotrophin releasing hormone levels in …)?
**A.** 0.5 mg/kg-day

**Q.** What about the NOAEL (Rattus norvegicus [1]; short-term, duration: 28 days, M, Sprague-Dawley) of the same compound?
**A.** 6 mg/kg-day

**Q.** And the LOAEL (Rattus norvegicus [1]; [6])?
**A.** 3.21 mg/kg-day

**Q.** What about the NOAEL (Rattus norvegicus [1]; [6]) of the same compound?
**A.** 1.33 mg/kg-day

**Q.** What about the LOAEL (Rattus norvegicus [1]; short-term, duration: 28 days, M, Sprague-Dawley, Death: 100% by day 26) of the same compound?
**A.** 20 mg/kg-day

**Q.** And the LOAEL (Rattus norvegicus [1]; short-term, duration: 28 days, M, Sprague-Dawley, Endocrine: Decreased serum prolactin (~78%) and estradiol concentrations (~18%))?
**A.** 3 mg/kg-day

**Q.** And the LOAEL (Rattus norvegicus [1]; short-term, duration: 28 days, M, Sprague-Dawley, Hepatic: Hepatocellular hypertrophy and focal necrosis at ?5 mg/kg/day / fatty degeneration at 20 mg/kg/day + Neurological: Cachexia and …)?
**A.** 5 mg/kg-day

**Q.** What about the NOAEL (Rattus norvegicus [1]; short-term, duration: 28 days, M, Sprague-Dawley, Hepatic: Increased relative liver weight at ?0.14 mg/kg/day) of the same compound?
**A.** 6.34 mg/kg-day

**Q.** What about the LOAEL (Rattus norvegicus [1]; [7]) of the same compound?
**A.** 1 mg/kg-day

**Q.** And the NOAEL (Rattus norvegicus [1]; [7])?
**A.** 0.5 mg/kg-day

**Q.** What about the LOAEL (Rattus norvegicus [1]; [8]) of the same compound?
**A.** 8.5 mg/kg-day

**Q.** What about the NOAEL (Rattus norvegicus [1]; [8]) of the same compound?
**A.** 2 mg/kg-day

**Q.** And the LOEL (Rattus norvegicus [2]; Clinical chemistry_Alanine aminotransferase)?
**A.** 2.5 mg/kg-day

**Q.** What about the LOEL (Rattus norvegicus [2]; Clinical chemistry_Albumin) of the same compound?
**A.** 2.5 mg/kg-day

**Q.** What about the LOEL (Rattus norvegicus [2]; Clinical chemistry_Albumin/globulin ratio) of the same compound?
**A.** 2.5 mg/kg-day

**Q.** What about the LOEL (Rattus norvegicus [2]; Clinical chemistry_Alkaline phosphatase) of the same compound?
**A.** 2.5 mg/kg-day

**Q.** And the NOEL (Rattus norvegicus [2]; Clinical chemistry_Aspartate aminotransferase)?
**A.** 5 mg/kg-day

**Q.** And the LOEL (Rattus norvegicus [2]; Clinical chemistry_Cholesterol)?
**A.** 5 mg/kg-day

**Q.** What about the LOEL (Rattus norvegicus [2]; Clinical chemistry_Direct bilirubin) of the same compound?
**A.** 2.5 mg/kg-day

**Q.** And the LOEL (Rattus norvegicus [2]; Clinical chemistry_Free thyroxine)?
**A.** 0.312 mg/kg-day

**Q.** What about the NOEL (Rattus norvegicus [2]; Clinical chemistry_Globulin) of the same compound?
**A.** 5 mg/kg-day

**Q.** And the NOEL (Rattus norvegicus [2]; Clinical chemistry_Sorbitol dehydrogenase)?
**A.** 5 mg/kg-day

**Q.** And the NOEL (Rattus norvegicus [2]; Clinical chemistry_Testosterone)?
**A.** 5 mg/kg-day

**Q.** And the NOEL (Rattus norvegicus [2]; Clinical chemistry_Thyroid stimulating hormone)?
**A.** 5 mg/kg-day

**Q.** What about the LOEL (Rattus norvegicus [2]; Clinical chemistry_Total bile acids) of the same compound?
**A.** 2.5 mg/kg-day

**Q.** What about the LOEL (Rattus norvegicus [2]; Clinical chemistry_Total bilirubin) of the same compound?
**A.** 5 mg/kg-day

**Q.** And the LOEL (Rattus norvegicus [2]; Clinical chemistry_Total protein)?
**A.** 5 mg/kg-day

**Q.** What about the LOEL (Rattus norvegicus [2]; Clinical chemistry_Total thyroxine) of the same compound?
**A.** 0.312 mg/kg-day

**Q.** What about the LOEL (Rattus norvegicus [2]; Clinical chemistry_Total triiodothyronine) of the same compound?
**A.** 0.625 mg/kg-day

**Q.** And the LOEL (Rattus norvegicus [2]; Clinical chemistry_Triglycerides)?
**A.** 2.5 mg/kg-day

**Q.** What about the LOEL (Rattus norvegicus [2]; Gene expression_Acox1) of the same compound?
**A.** 0.312 mg/kg-day

**Q.** And the LOEL (Rattus norvegicus [2]; Gene expression_Cyp2b1)?
**A.** 0.312 mg/kg-day

**Q.** And the LOEL (Rattus norvegicus [2]; Gene expression_Cyp2b2)?
**A.** 0.312 mg/kg-day

**Q.** What about the LOEL (Rattus norvegicus [2]; Gene expression_Cyp4a1) of the same compound?
**A.** 0.312 mg/kg-day

**Q.** And the NOEL (Rattus norvegicus [2]; Hematology_Erythrocytes)?
**A.** 5 mg/kg-day

**Q.** And the NOEL (Rattus norvegicus [2]; Hematology_Hematocrit)?
**A.** 5 mg/kg-day

**Q.** And the NOEL (Rattus norvegicus [2]; Hematology_Hemoglobin)?
**A.** 5 mg/kg-day

**Q.** And the NOEL (Rattus norvegicus [2]; Hematology_Leukocytes)?
**A.** 5 mg/kg-day

**Q.** What about the LOEL (Rattus norvegicus [2]; Hematology_Reticulocytes) of the same compound?
**A.** 2.5 mg/kg-day

**Q.** What about the NOEL (Rattus norvegicus [2]; Hematology_S. neutrophils) of the same compound?
**A.** 5 mg/kg-day

**Q.** And the LOEL (Rattus norvegicus [2]; Nonneoplastic effects_Bone marrow - Hypocellularity)?
**A.** 2.5 mg/kg-day

**Q.** What about the NOEL (Rattus norvegicus [2]; Nonneoplastic effects_Kidney - Papilla, necrosis) of the same compound?
**A.** 5 mg/kg-day

**Q.** And the LOEL (Rattus norvegicus [2]; Nonneoplastic effects_Liver - Hepatocyte, cytoplasmic alteration)?
**A.** 1.25 mg/kg-day

**Q.** What about the LOEL (Rattus norvegicus [2]; Nonneoplastic effects_Liver - Hepatocyte, hypertrophy) of the same compound?
**A.** 1.25 mg/kg-day

**Q.** What about the NOEL (Rattus norvegicus [2]; Nonneoplastic effects_Liver - Hepatocyte, vacuolization cytoplasmic) of the same compound?
**A.** 5 mg/kg-day

**Q.** What about the NOEL (Rattus norvegicus [2]; Nonneoplastic effects_Liver - Necrosis) of the same compound?
**A.** 5 mg/kg-day

**Q.** What about the NOEL (Rattus norvegicus [2]; Nonneoplastic effects_Nose - Olfactory epithelium, degeneration) of the same compound?
**A.** 5 mg/kg-day

**Q.** And the NOEL (Rattus norvegicus [2]; Nonneoplastic effects_Nose - Olfactory epithelium, hyperplasia)?
**A.** 5 mg/kg-day

**Q.** What about the NOEL (Rattus norvegicus [2]; Nonneoplastic effects_Nose - Olfactory epithelium, inflammation, suppurative) of the same compound?
**A.** 5 mg/kg-day

**Q.** And the NOEL (Rattus norvegicus [2]; Nonneoplastic effects_Nose - Olfactory epithelium, necrosis)?
**A.** 5 mg/kg-day

**Q.** What about the LOEL (Rattus norvegicus [2]; Nonneoplastic effects_Spleen - Extramedullary hematopoiesis, decreased) of the same compound?
**A.** 1.25 mg/kg-day

**Q.** What about the NOEL (Rattus norvegicus [2]; Nonneoplastic effects_Stomach, forestomach - Epithelium, hyperplasia) of the same compound?
**A.** 5 mg/kg-day

**Q.** What about the NOEL (Rattus norvegicus [2]; Nonneoplastic effects_Thymus - Atrophy) of the same compound?
**A.** 5 mg/kg-day

**Q.** What about the LOEL (Rattus norvegicus [2]; Organ weights_Heart - Absolute) of the same compound?
**A.** 5 mg/kg-day

**Q.** What about the LOEL (Rattus norvegicus [2]; Organ weights_Heart - Relative) of the same compound?
**A.** 5 mg/kg-day

**Q.** And the LOEL (Rattus norvegicus [2]; Organ weights_Liver - Absolute)?
**A.** 0.312 mg/kg-day

**Q.** And the LOEL (Rattus norvegicus [2]; Organ weights_Liver - Relative)?
**A.** 0.312 mg/kg-day

**Q.** And the NOEL (Rattus norvegicus [2]; Organ weights_Lung - Absolute)?
**A.** 5 mg/kg-day
